Earlier results as cited in patent publication US20110092602A1 (priority 2008, published 2011).
Like-named read-outs stand apart in the source and are kept apart here.

Experiments:
[1] = system: μ-opioid receptors
[2] = pH 7
[3] = not given; remark: listed apart in the source

SMILES	affinity of binding to μ-opioid receptors [1]	potency in μ-opioid binding relative to tramadol ([1]; animal models)	potency in producing analgesia relative to tramadol (animal models)	antagonism of analgesia by the opiate antagonist naloxone (several animals tests)	n-octanol/water log partition coefficient (logP) [2]	solubility ([3]; ethanol)	solubility ([3]; water)
CN(C)C[C@H]1CCCC[C@]1(O)c1cccc(O)c1 [Example M1]	higher affinity	200 times	up to 6 times	–	–	–	–
COc1cccc(C2(O)CCCCC2CN(C)C)c1 (centres unmarked) [Tramadol, 2-dimethylaminomethyl-1-(3-methoxyphenyl)cyclohexanol]	low affinity	–	–	only partially antagonized	–	–	–
COc1cccc([C@]2(O)CCCC[C@H]2CN(C)C)c1.Cl (racemic) [Tramadol hydrochloride, (±)cis-2-[(dimethylamino)methyl]-1-(3-methoxyphenyl)cyclohexanol hydrochloride]	–	–	–	–	1.35	readily soluble	readily soluble
